Patent US20260317324A1, “BIFUNCTIONAL COMPOUNDS FOR DEGRADING BRAF VIA UBIQUITIN PROTEOSOME PATHWAY” (Nurix Therapeutics, Inc., priority 2023, published 2026)

Columns and labels:
Format in all cases: cell-based
BRAF D594G = target: T1, BRAF D594G (Homo sapiens, UniProt P15056, D594G); test: BRAF HiBiT degradation assay, C-terminal HiBiT-tagged BRAF D594G overexpressed in HCT-116 BRAF−/− cells (clone 63), Nano-Glo HiBiT Lytic assay
T1 construct: Horizon Discovery (HCT-116 BRAF−/− cells); host or cells: HCT-116 BRAF−/− cells, clone 63, lentiviral transduction
T1 sequence (P15056 whole entry D594G): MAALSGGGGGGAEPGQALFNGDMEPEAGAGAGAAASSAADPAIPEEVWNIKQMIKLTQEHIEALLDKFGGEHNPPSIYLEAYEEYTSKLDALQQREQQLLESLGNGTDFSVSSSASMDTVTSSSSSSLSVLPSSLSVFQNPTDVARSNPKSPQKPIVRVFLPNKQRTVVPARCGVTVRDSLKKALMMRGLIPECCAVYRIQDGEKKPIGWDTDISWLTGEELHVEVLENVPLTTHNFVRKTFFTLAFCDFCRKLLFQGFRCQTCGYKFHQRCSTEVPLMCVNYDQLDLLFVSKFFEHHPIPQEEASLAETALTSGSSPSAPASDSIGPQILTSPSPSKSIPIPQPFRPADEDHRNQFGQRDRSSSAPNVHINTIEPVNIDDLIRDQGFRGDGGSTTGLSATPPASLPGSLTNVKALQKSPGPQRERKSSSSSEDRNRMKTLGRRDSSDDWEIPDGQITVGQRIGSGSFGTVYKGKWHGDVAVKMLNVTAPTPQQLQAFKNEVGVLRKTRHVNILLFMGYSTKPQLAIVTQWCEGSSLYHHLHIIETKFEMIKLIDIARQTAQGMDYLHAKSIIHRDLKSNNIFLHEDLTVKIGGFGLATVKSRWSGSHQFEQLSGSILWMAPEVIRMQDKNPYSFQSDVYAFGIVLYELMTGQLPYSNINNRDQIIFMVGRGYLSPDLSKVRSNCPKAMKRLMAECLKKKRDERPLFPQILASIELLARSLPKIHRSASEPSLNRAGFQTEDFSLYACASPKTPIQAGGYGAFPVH
Method in brief: (§1)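 First, the stable HiBiT-tagged cells were plated and incubated for 24 h. Next, compound was added in duplicate as an 11-point series with a 1 μM top concentration. Lytic detection followed, with DMSO-treated parental cells used for background. Finally, DC50 and Obs. Dmax relative to DMSO were derived from the % protein remaining curves.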

BRAF V600E = target: T2, BRAF V600E (Homo sapiens, UniProt P15056, V600E); test: BRAF HiBiT degradation assay, C-terminal HiBiT-tagged BRAF V600E A375 cells (clone 1F10), Nano-Glo HiBiT Lytic assay; settings: for Dmax: A-375
T2 construct: endogenous C-terminal HiBiT fusion tag on BRAF V600E allele; endogenous in cells; host or cells: A375 clone 1F10 (CRISPR-Cas9 knock-in of the HiBiT tag; parental A375 from ATCC)
T2 sequence (P15056 whole entry V600E, the tested form may be a part): as the sequence (P15056 whole entry D594G) above, with G594D, V600E counted along it
Method in brief: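 Degradation is measured as loss of HiBiT signal from BRAF V600E tagged at its native locus in A375 cells. Doses span 1 μM to 0.01 nM in half-log steps, in duplicate. Percent remaining is calculated against DMSO controls after subtracting untagged A375 background, and curve fitting yields DC50 and observed Dmax.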

BRAF G469A = target: T3, BRAF G469A (Homo sapiens, UniProt P15056, G469A); test: BRAF HiBiT degradation assay, C-terminal HiBiT-tagged BRAF G469A overexpressed in HCT-116 BRAF−/− cells (clone 34), Nano-Glo HiBiT Lytic assay
T3 construct: Horizon Discovery (HCT-116 BRAF−/− cells); host or cells: HCT-116 BRAF−/− cells, clone 34, lentiviral transduction
T3 sequence (P15056 whole entry G469A): as the sequence (P15056 whole entry D594G) above, with G469A, G594D counted along it
Method in brief: as §1

BRAF G466V = target: T4, BRAF G466V (Homo sapiens, UniProt P15056, G466V); test: BRAF HiBiT degradation assay, C-terminal HiBiT-tagged BRAF G466V overexpressed in HCT-116 BRAF−/− cells (clone 8), Nano-Glo HiBiT Lytic assay
T4 construct: Horizon Discovery (HCT-116 BRAF−/− cells); host or cells: HCT-116 BRAF−/− cells, clone 8, lentiviral transduction
T4 sequence (P15056 whole entry G466V): as the sequence (P15056 whole entry D594G) above, with G466V, G594D counted along it
Method in brief: as §1

[1] = BRAF D594G, DC50 at 50%: fitted conc. at Y=50
[2] = HCT-116, BRAF D594G, percentage protein degraded at maximal compound effect relative to DMSO
[3] = A375 (BRAF V600E), DC50 at 50%: fitted conc. at Y=50
[4] = A375 (BRAF V600E), percentage protein degraded at maximal compound effect relative to DMSO
[5] = Class 2, BRAF G469A, DC50 at 50%: fitted conc. at Y=50
[6] = HCT-116, Class 2, BRAF G469A, percentage protein degraded at maximal compound effect relative to DMSO
[7] = BRAF G466V, DC50 at 50%: fitted conc. at Y=50
[8] = HCT-116, BRAF G466V, percentage protein degraded at maximal compound effect relative to DMSO
[9] = BRAF D594G (Class 3), HCT-116 BRAF−/− cells, DC50 at 50% degradation
[10] = BRAF D594G (Class 3), HCT-116 BRAF−/− cells, observed Dmax relative to DMSO control
[11] = A375 (BRAF V600E, Class 1), DC50 at 50% degradation
[12] = A375 (BRAF V600E, Class 1), observed Dmax, % protein degraded relative to DMSO control
[13] = BRAF G469A (Class 2), HCT-116 BRAF−/− cells, DC50 at 50% degradation
[14] = BRAF G469A (Class 2), HCT-116 BRAF−/− cells, observed Dmax relative to DMSO control
[15] = BRAF G466V (Class 3), HCT-116 BRAF−/− cells, DC50 at 50% degradation
[16] = BRAF G466V (Class 3), HCT-116 BRAF−/− cells, observed Dmax relative to DMSO control

SMILES | DC50 (BRAF D594G; [1]) [nM] | Dmax (BRAF D594G; [2]) [%] | DC50 (BRAF V600E; [3]) [nM] | Dmax (BRAF V600E; [4]) [%] | DC50 (BRAF G469A; [5]) [nM] | Dmax (BRAF G469A; [6]) [%] | DC50 (BRAF G466V; [7]) [nM] | Dmax (BRAF G466V; [8]) [%] | DC50 (BRAF D594G; [9]) [nM] | Dmax (BRAF D594G; [10]) [%] | DC50 (BRAF V600E; [11]) [nM] | Dmax (BRAF V600E; [12]) [%] | DC50 (BRAF G469A; [13]) [nM] | Dmax (BRAF G469A; [14]) [%] | DC50 (BRAF G466V; [15]) [nM] | Dmax (BRAF G466V; [16]) [%]
O=C1CC[C@H](c2ccc(N3CCC(CN4CCN(c5ccc(-n6cc(-c7cc(Cl)cc(NS(=O)(=O)N8CC[C@@H](F)C8)c7F)c(-c7ccncc7)n6)nc5)CC4)CC3)nc2)C(=O)N1 [Compound 297, (3R)—N-{5-chloro-3-[1-(5-{4-[(1-{5-[(3R)-2,6-dioxopiperidin-3-yl]pyridin-2-yl}piperidin-4-yl)methyl]piperazin-1-yl}pyridin-2-yl)-3-(pyridin-4-yl)-1H-pyrazol-4-yl]-2-fluorophenyl}-3-fluoropyrrolidine-1-sulfonamide] | – | – | – | – | – | – | – | – | < 10 | > 70 | < 10 | > 70 | < 10 | > 70 | < 10 | > 70
O=C1CCN(c2ccc(N3CCC(CN4CCN(c5ccc(-n6cc(-c7cc(C(F)F)cc(NS(=O)(=O)N8CCCC8)c7F)c(-c7ccncc7)n6)c(F)c5)CC4)CC3)cc2)C(=O)N1 [Compound 356, N-[5-(difluoromethyl)-3-(1-{4-[4-({1-[4-(2,4-dioxo-1,3-diazinan-1-yl)phenyl]piperidin-4-yl}methyl)piperazin-1-yl]-2-fluorophenyl}-3-(pyridin-4-yl)-1H-pyrazol-4-yl)-2-fluorophenyl]pyrrolidine-1-sulfonamide] | – | – | – | – | – | – | – | – | > 500 | 30 to 70 | 10 to 50 | > 70 | > 500 | < 30 | 10 to 50 | 30 to 70
CCN(C)S(=O)(=O)Nc1cc(F)cc(-c2cn(-c3ccc(N4CCN(CC5CCN(c6ccc([C@H]7CCC(=O)NC7=O)cn6)CC5)CC4)cc3)nc2-c2ccncc2)c1F [Compound 375, (3R)-3-(6-{4-[(4-{4-[4-(3-{[ethyl(methyl)sulfamoyl]amino}-2,5-difluorophenyl)-3-(pyridin-4-yl)-1H-pyrazol-1-yl]phenyl}piperazin-1-yl)methyl]piperidin-1-yl}pyridin-3-yl)piperidine-2,6-dione] | – | – | – | – | – | – | – | – | < 10 | > 70 | < 10 | > 70 | 10 to 50 | > 70 | < 10 | > 70
O=C1CC[C@H](c2ccc(N3CCC(CN4CCN(c5ccc(-n6cc(-c7cc(Cl)cc(NS(=O)(=O)N8CCCC8)c7F)c(-c7ccncc7)n6)c(F)c5)CC4)CC3)cc2)C(=O)N1 [Compound 281, N-{5-chloro-3-[1-(4-{4-[(1-{4-[(3R)-2,6-dioxopiperidin-3-yl]phenyl}piperidin-4-yl)methyl]piperazin-1-yl}-2-fluorophenyl)-3-(pyridin-4-yl)-1H-pyrazol-4-yl]-2-fluorophenyl}pyrrolidine-1-sulfonamide] | – | – | – | – | – | – | – | – | < 10 | 30 to 70 | < 10 | > 70 | 10 to 50 | 30 to 70 | < 10 | > 70
O=C1CC[C@H](c2ccc(N3CCC(CN4CCN(c5ccc(-n6cc(-c7cc(C(F)F)cc(NS(=O)(=O)N8CCCC8)c7F)c(-c7ccncc7)n6)c(F)c5)CC4)CC3)cc2)C(=O)N1 [Compound 362, N-[5-(difluoromethyl)-3-[1-(4-{4-[(1-{4-[(3R)-2,6-dioxopiperidin-3-yl]phenyl}piperidin-4-yl)methyl]piperazin-1-yl}-2-fluorophenyl)-3-(pyridin-4-yl)-1H-pyrazol-4-yl]-2-fluorophenyl]pyrrolidine-1-sulfonamide] | – | – | – | – | – | – | – | – | < 10 | 30 to 70 | < 10 | > 70 | 10 to 50 | 30 to 70 | < 10 | > 70
O=C1CCC(c2ccc(N3CCC(CN4CCN(c5ccc(-n6cc(-c7cc(Cl)cc(NS(=O)(=O)N8CC[C@@H](F)C8)c7F)c(-c7ccncc7)n6)cc5F)CC4)CC3)nc2)C(=O)N1 (mixture of isomers) [Compound 366, (3R)—N-{5-chloro-3-[1-(4-{4-[(1-{5-[(3RS)-2,6-dioxopiperidin-3-yl]pyridin-2-yl}piperidin-4-yl)methyl]piperazin-1-yl}-3-fluorophenyl)-3-(pyridin-4-yl)-1H-pyrazol-4-yl]-2-fluorophenyl}-3-fluoropyrrolidine-1-sulfonamide] | – | – | – | – | – | – | – | – | < 10 | > 70 | < 10 | > 70 | < 10 | > 70 | < 10 | > 70

Second part, the compound after the results:

DC50 (BRAF D594G; [1]) [nM] | Dmax (BRAF D594G; [2]) [%] | DC50 (BRAF V600E; [3]) [nM] | Dmax (BRAF V600E; [4]) [%] | DC50 (BRAF G469A; [5]) [nM] | Dmax (BRAF G469A; [6]) [%] | DC50 (BRAF G466V; [7]) [nM] | Dmax (BRAF G466V; [8]) [%] | DC50 (BRAF D594G; [9]) [nM] | Dmax (BRAF D594G; [10]) [%] | DC50 (BRAF V600E; [11]) [nM] | Dmax (BRAF V600E; [12]) [%] | DC50 (BRAF G469A; [13]) [nM] | Dmax (BRAF G469A; [14]) [%] | DC50 (BRAF G466V; [15]) [nM] | Dmax (BRAF G466V; [16]) [%] | SMILES
50 to 500 | 30 to 70 | < 10 | > 70 | > 500 | 30 to 70 | < 10 | 30 to 70 | – | – | – | – | – | – | – | – | CCCS(=O)(=O)Nc1cccc(-c2nc(C(C)(C)C)sc2-c2ccnc(Nc3ccc(N4CCN(C(=O)CC5CCN(c6ccc(NC7CCC(=O)NC7=O)cc6)CC5)CC4)c(F)c3)n2)c1F (racemic) [Compound 46, Rac-N-{3-[2-tert-butyl-5-(2-{[4-(4-{2-[1-(4-{[(3R)-2,6-dioxopiperidin-3-yl]amino}phenyl)piperidin-4-yl]acetyl}piperazin-1-yl)-3-fluorophenyl]amino}pyrimidin-4-yl)-1,3-thiazol-4-yl]-2-fluorophenyl}propane-1-sulfonamide]
> 500 | 30 to 70 | 10 to 50 | 30 to 70 | > 500 | < 30 | > 500 | < 30 | – | – | – | – | – | – | – | – | CCCS(=O)(=O)Nc1cccc(-c2nc(C(C)(C)C)sc2-c2ccnc(NC3CC4(C3)CN(C(=O)CN3CCC5(CC3)CN(c3ccc6c(c3)C(=O)N(C3CCC(=O)NC3=O)C6=O)C5)C4)n2)c1F (racemic) [Compound 152, Rac-N-(3-{2-tert-butyl-5-[2-({2-[2-(2-{2-[(3R)-2,6-dioxopiperidin-3-yl]-1,3-dioxo-2,3-dihydro-1H-isoindol-5-yl}-2,7-diazaspiro[3.5]nonan-7-yl)acetyl]-2-azaspiro[3.3]heptan-6-yl}amino)pyrimidin-4-yl]-1,3-thiazol-4-yl}-2-fluorophenyl)propane-1-sulfonamide]
> 500 | 30 to 70 | < 10 | > 70 | > 500 | 30 to 70 | > 500 | 30 to 70 | – | – | – | – | – | – | – | – | CCCS(=O)(=O)Nc1cccc(-c2nc(C(C)(C)C)sc2-c2ccnc(Nc3ccc(N4CCN(C(=O)C5CCN(c6ccc(C7CCC(=O)NC7=O)cn6)CC5)CC4)c(F)c3)n2)c1F (racemic) [Compound 57, Rac-N-(3-{2-tert-butyl-5-[2-({4-[4-(1-{5-[(3R)-2,6-dioxopiperidin-3-yl]pyridin-2-yl}piperidine-4-carbonyl)piperazin-1-yl]-3-fluorophenyl}amino)pyrimidin-4-yl]-1,3-thiazol-4-yl}-2-fluorophenyl)propane-1-sulfonamide]
> 500 | 30 to 70 | < 10 | > 70 | > 500 | 30 to 70 | < 10 | 30 to 70 | – | – | – | – | – | – | – | – | CCCS(=O)(=O)Nc1cccc(-c2nc(C3CCN(C(=O)CN4CCC5(CC4)CN(c4ccc6c(c4)C(=O)N(C4CCC(=O)NC4=O)C6=O)C5)CC3)sc2-c2ccnc(NC)n2)c1F (racemic) [Compound 219, Rac-N-[3-(2-{1-[2-(2-{2-[(3R)-2,6-dioxopiperidin-3-yl]-1,3-dioxo-2,3-dihydro-1H-isoindol-5-yl}-2,7-diazaspiro[3.5]nonan-7-yl)acetyl]piperidin-4-yl}-5-[2-(methylamino)pyrimidin-4-yl]-1,3-thiazol-4-yl)-2-fluorophenyl]propane-1-sulfonamide]
